Assay results reported in publication PMC5727346 (International Journal for Parasitology: Drugs and Drug …, 2017).

Biological target: triosephosphate isomerase from G. lamblia (GlTIM; dGlTIM) (Giardia duodenalis, UniProt P36186, C202A)
Assay: GDH-coupled TIM activity assay after […] h incubation at […] °C
Type: biochemical

CCN(CC)C(=S)SSC(=S)N(CC)CC [disulfiram, 1,1′,1″,1‴-[disulfanediylbis(carbonothioylnitrilo)]tetraethane]
IC50: 6.6 µM
